Test system: live anesthetized rats
Details: rat, in vivo

With CNCC(O)c1ccc(O)c(O)c1 (stereo not shown) [Adrenalin] the rhythm disturbances was “induced rhythm disturbances”.
